Reference: patent EP3511005A1, “COMPOUNDS FOR USE IN TREATING HUTCHINSON-GILFORD PROGERIA SYNDROME” (Technische Universität München, priority 2018, dated 2019)
Where “and” joins values, the source holds several entries; their conditions need not be identical. Equal values may be shown once.

Key:
[1] = system: control and progerin mouse cells; assay: Cell growth (proliferation) of mouse fibroblasts; assay type: cell-based; settings: 3 µM
Experimental: First, control and HGPS fibroblasts were cultured at 37 °C and 5% CO2 in culture media without drug. […] Then, each type of fibroblasts was seeded in triplicate with 150.000 cells/dish at the four different conditions. After 4 days and 9 days, the number of cells harvested in each condition was counted, also using a CASY® Cell Counter (Roche). The cumulative population doubling was determined using equation 5. Cumulative Population Doubling = 3,32 × log((cells harvested)/(cells seeded)) [formula]

HGPS fibroblasts [2] = assay: Intracellular ATP measurement in HGPS fibroblasts; assay type: cell-based, human; settings: 0.25-1 µM, 4 or 9 days
Experimental: This assay relies in the properties of a proprietary thermostable luciferase which generates a stable luminescent signal that is proportional to the amount of ATP in the cells by catalyzing the mono-oxygenation of luciferin in the presence of Mg^2+, ATP and molecular oxygen.
This reagent is obtained by transferring 10 ml of CellTiter-Glo® Buffer into an amber bottle containing CellTiter-Glo® Substrate and then mixing it gently by vortexing. The plate was then mixed for 2 min in an orbital shaker to induce cell lysis and following that, it was incubated at room temperature for 10 min to stabilize the luminescent signal. Finally, luminescence was recorded in a FLUOstar Omega Microplate Reader (Omega BMG Labtech). Considering that the ATP level in mock-treated control fibroblasts is 100%, the ATP levels relative to mock-treated control fibroblasts were calculated for each condition.
Culture media without cells was used as a blank negative control to assure there is no interference with the luciferase reaction.

HGPS fibroblasts [3] = assay: 20S proteasome activity measurement in HGPS fibroblasts; assay type: cell-based, human; settings: 0.25-1 µM, 4 or 9 days
Experimental: This assay uses a specific 20S substrate (SUC-LLVY-AMC) which, upon cleavage by the active enzyme, generates a fluorescent product that can be detected.
Next, the plate was again centrifuged in the same conditions, the supernatant was aspirated, and 100 µl of 20S Proteasome Lysis Buffer was added to each well. Then, the plate was incubated with gentle shaking for 30 min at room temperature to allow cell lysis and it was centrifuged at 1300 rpm for 7 min. Following centrifugation, 90 µl of the supernatant from each well was transferred to a new empty well together with 10 µl of substrate solution. The substrate solution was prepared by adding 25 µl of 20S Proteasome Substrate (SUC-LLVY-AMC) to 1 ml of 20S Proteasome Assay Buffer. […] Considering that the proteasomal activity in mock-treated control fibroblasts is 100%, the proteasomal activity relative to mock-treated control fibroblasts was calculated for each condition.
A Jurkat cell lysate supernatant which contains a high level of 20S activity was used as positive control (20S Proteasome Positive Control) and 20S Proteasome Assay Buffer was used as negative blank control.

HGPS fibroblasts [4] = assay: Western blot analysis of progerin and lamin A/C levels in HGPS fibroblasts; assay type: cell-based, human; settings: HGPS cells
Experimental: Primary dermal fibroblasts from subjects with HGPS were obtained from the Progeria Research Foundation. Two different fibroblasts derived from HGPS patients carrying the LMNA mutation G608G were used: HGADFN003 (person) and HGADFN127 (person). Control dermal fibroblasts were obtained from the Coriell Institute for Medical Research (Camden, NJ). The following cell lines were used: GMO1651C and GMO3349C. All cells were maintained at -80 °C in 90% fetal bovine serum (FBS) and 10% dimethyl sulfoxide (DMSO). The Institutional Review Board of the Technische Universität München (TUM) approved the use of human cells established from skin biopsies from patients with HGPS and unaffected individuals in this study.
Control and HGPS fibroblasts were cultured at 37 °C and 5% CO2 in Dulbecco's Modified Eagle Media (DMEM) (Gibco by life technologies) containing 15% FBS (Gibco by life technologies), 1% L-glutamine (Gibco by life technologies), 1% penicillin/streptomycin (Gibco by life technologies), and 2 ml of gentamycin (Gibco by life technologies). Mock-treated and baricitinib-treated fibroblasts were cultured in parallel. […] Three times a week the cells were re-fed with new culture media.
(§1) A similar quantitative Western Blot analysis was carried out in wild-type mouse fibroblasts compared to fibroblasts obtained from the progerin mouse model (see Figure 17).
Subsequently, the cell suspension was centrifuged for 5 min at 1200 rpm, the supernatant was aspirated, and the cells were washed with 4.5 ml PBS (Sigma). These steps were performed thrice in order to assure that all culture media is removed. Then, the cells were transferred to Eppendorf tubes with 1 ml PBS (Sigma) and the tubes were centrifuged for 5 min at 1200 rpm. […]
(§2) The total protein concentration of each gel electrophoresis loading sample was determined by using a series of dilutions of known concentrations of bovine serum albumin (BSA) to obtain a standard curve. […] The total protein concentration of each gel electrophoresis loading sample was calculated based on this standard curve. […]

HGPS fibroblasts [5] = assay: Autophagy measurement in HGPS fibroblasts; assay type: cell-based, human; settings: 0.25-1 µM, 4 or 9 days
Experimental: This assay uses monodansylcadaverine (MDC), a fluorescent compound that is incorporated into multilamellar bodies by both an ion trapping mechanism and the interaction with membrane lipids, as a probe for the detection of autophagic vacuoles in cells.
The staining solution was prepared by diluting Cell-Based Monodansylcadaverine 1:1000 in Cell Based Assay Buffer. The assay buffer was prepared by dissolving a Cell-Based Assay Buffer Tablet in 100 ml of distilled water. The plate was then incubated at 37 °C for 10 min and centrifuged for 5 min at 1200 rpm. Next, the supernatant was removed, 100 µl of Cell-Based Assay Buffer was added to each well and the plate was again centrifuged in the same conditions. […] Considering that the autophagy level in mock-treated control fibroblasts is 100%, the level of autophagy relative to mock-treated control fibroblasts for each condition was determined (see Figure 5).
Cell-Based Tamoxifen (100 mM), a known inducer of autophagy, was used as a positive control. This compound was initially added to a control culture diluted 1:50.000 into the culture media. Cell Based Assay Buffer was used as a negative blank control.

HGPS fibroblasts [6] = assay: Intracellular ROS measurement in HGPS fibroblasts; assay type: cell-based, human; settings: 0.25-1 µM, 4 or 9 days
Source text: This assay uses 2',7'-dichlorofluorescein diacetate (DCFDA), a cell permeant reagent that after entering the cell is deacetylated by cellular esterases to a non-fluorescent compound that is later oxidized by ROS into 2',7'-dichlorofluorescein (DCF). DCF is highly fluorescent and can be detected by fluorescence spectroscopy.
First, control and HGPS fibroblasts were harvested in the above mentioned conditions and, following trypsinization, the number of cells was counted with a CASY® Cell Counter (Roche). The fibroblasts from each condition were seeded in triplicate in a 96 well plate with 32.000 cells/well in 100 µl of culture media with the appropriate drug concentration, and the plate was incubated at 37 °C for 8 h. After the incubation, the culture media was aspirated, 100 µl of 1 x Buffer were added to each well, and the plate was centrifuged at 1200 rpm for 5 min. […] Following the addition of 1x Buffer, fluorescence was measured immediately in a FLUOstar Omega Microplate Reader (Omega BMG Labtech) using an excitation wavelength of 485 nm and an emission wavelength of 535 nm. Considering that the ROS level in mock-treated control fibroblasts is 100%, the ROS levels relative to mock-treated control fibroblasts were calculated for each condition. […]

[7] = system: mouse fibroblasts from a progerin mouse model; assay: Western blot analysis of progerin levels in mouse fibroblasts from progerin mouse model; assay type: cell-based; settings: mouse progerin fibroblasts (LMNA G609G/G609G), 3 µM
Experimental: as §1
Subsequently, the cell suspension was centrifuged for 5 min at 1200 rpm, the supernatant was aspirated, and the cells were washed with 4.5 ml PBS (Sigma). These steps were performed thrice in order to assure that all culture media is removed. Then, the cells were transferred to Eppendorf tubes with 1 ml PBS (Sigma) and the tubes were centrifuged for 5 min at 1200 rpm. After fully aspirating PBS, the cell pellets were obtained. Following the generation of cell pellets, the next action was the preparation of the gel electrophoresis loading samples. The first step was the addition of 100 µl per 10^7 cells of Laemmli Buffer-inhibitor mix to each Eppendorf tube to lyse the fibroblasts and denature the proteins of the lysate. […]
as §2

[8] = system: mouse fibroblasts from a progerin mouse model; assay: Autophagy measurement in mouse fibroblasts (monodansylcadaverine staining); settings: 3 µM
Experimental: First, control and HGPS fibroblasts were harvested in the above mentioned conditions and, following trypsinization, the number of cells was counted with a CASY® Cell Counter (Roche). Afterwards, fibroblasts from each condition were seeded in triplicate in a 96 well plate with 32.000 cells/well in 100 µl of culture media with the appropriate drug concentration, and the plate was incubated at 37 °C for 8 h. After centrifuging the 96 well plate at 1200 rpm for 5 min, the culture media was aspirated from each well and 100 µl of staining solution was added. The staining solution was prepared by diluting Cell-Based Monodansylcadaverine 1:1000 in Cell Based Assay Buffer. The assay buffer was prepared by dissolving a Cell-Based Assay Buffer Tablet in 100 ml of distilled water. […] Lastly, after removing the supernatant, 100 µl of Cell-Based Assay Buffer was added to each well and the autophagic vacuole staining intensity was immediately detected in a FLUOstar Omega Microplate Reader (Omega BMG Labtech) using an excitation wavelength of 355 nm and an emission wavelength of 520 nm.

For `CCS(=O)(=O)N1CC(CC#N)(n2cc(-c3ncnc4[nH]ccc34)cn2)C1` [baricitinib], the cell growth [1] was “ameliorate cell growth”, the ATP levels (HGPS fibroblasts [2]) was “increase” and the proteasome activity (HGPS fibroblasts [3]) was “increase”. For the same molecule, the “reduction of levels of progerin” value (HGPS fibroblasts [4]; 4 days treatment with 1 µM, anti-progerin and anti-lamin A/C antibodies) was 15%, the progerin levels decreased (HGPS fibroblasts [4]; 9 days treatment with 1 µM) was 33% and the “lamin A and lamin C levels” value (HGPS fibroblasts [4]; long-term treatment) was “remained constant”. The autophagy activity (HGPS fibroblasts [5]) was “increase”, the ROS levels (HGPS fibroblasts [6]) was “decrease” and the “levels of progerin decrease” value ([7]; day 4) was 18%. The “levels of progerin decrease” value ([7]; day 9) was 35% and 35.6%, the levels of autophagy ([8]; both control and progerin mouse fibroblasts) was “increases” and the “levels of autophagy increased” value ([8]; progerin mouse fibroblast relative to mock-treated control cells) was 39.9%.
